Calls of active or inactive are those of the source.
How the values were obtained:
HeLa = assay: HeLa cell cytotoxicity, dose response, cytotoxicity control for MITF activator project, CellTiter-Glo luminescence, cherry-pick samples (AID 540259); format: functional, cell-based; settings: Homo sapiens
[1] = Luminescence Cell-Based Dose Response HTS to Identify Activators of Luciferase Translation or Activity in H4 […] Cells. [Related pubchem assays: 1829 (Project Summary), 1814 (Primary HTS)]; format: functional
[2] = target: T1, Oxysterols receptor LXR-beta (Homo sapiens, UniProt P55055); format: functional, cell-based;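 also: agonist activity at LXR measured by a cell-based luminescence readout across a dose range, run as a counterscreen for daf-12 agonists; HEK293 cells with Gal4-LXR fusion and GAL4-driven luciferase reporter; potency for activation of Gal4-LXR reporter so compounds are agonists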
T1 sequence (P55055 whole entry): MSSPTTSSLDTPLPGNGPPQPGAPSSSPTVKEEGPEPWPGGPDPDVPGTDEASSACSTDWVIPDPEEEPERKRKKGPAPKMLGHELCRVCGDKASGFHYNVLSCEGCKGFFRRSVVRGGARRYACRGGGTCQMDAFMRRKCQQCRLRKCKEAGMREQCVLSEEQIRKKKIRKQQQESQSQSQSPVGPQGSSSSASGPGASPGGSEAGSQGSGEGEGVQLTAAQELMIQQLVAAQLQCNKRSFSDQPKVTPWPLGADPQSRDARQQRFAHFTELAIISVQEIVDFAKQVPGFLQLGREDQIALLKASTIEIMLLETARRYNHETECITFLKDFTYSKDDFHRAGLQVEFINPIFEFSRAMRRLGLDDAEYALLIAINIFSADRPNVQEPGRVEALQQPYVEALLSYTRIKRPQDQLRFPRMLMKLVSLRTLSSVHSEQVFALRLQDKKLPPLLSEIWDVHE

Escherichia coli [3] = assay: microbe, parasite or virus in culture
Escherichia coli [4] = assay: microbe, parasite or virus in culture; remark: listed apart in the source
[5] = target: Beta-2 adrenergic receptor (Homo sapiens, UniProt P07550); assay: beta2AR agonists driving receptor internalization, dose response, cell-based, FAP fluorogen, flow cytometry, cherry pick 1 (AID 588763); format: functional
Beta-2 adrenergic receptor, sequence (P07550 whole entry): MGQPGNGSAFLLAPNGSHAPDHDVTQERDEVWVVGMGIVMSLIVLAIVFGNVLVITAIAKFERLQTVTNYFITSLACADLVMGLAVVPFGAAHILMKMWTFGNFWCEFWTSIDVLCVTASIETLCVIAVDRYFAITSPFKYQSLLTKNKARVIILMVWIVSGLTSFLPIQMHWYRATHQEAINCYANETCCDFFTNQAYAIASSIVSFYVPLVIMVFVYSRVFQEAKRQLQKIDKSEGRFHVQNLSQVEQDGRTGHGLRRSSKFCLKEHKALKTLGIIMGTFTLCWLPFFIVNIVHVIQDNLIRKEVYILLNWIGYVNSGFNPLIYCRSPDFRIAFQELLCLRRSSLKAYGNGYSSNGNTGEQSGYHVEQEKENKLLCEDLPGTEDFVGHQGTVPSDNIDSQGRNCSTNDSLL

[6] = HEp-2 cell cytotoxicity, dose response, cytotoxicity control for RSV inhibitor project, HTS (AID 2410); format: functional; settings: human respiratory syncytial virus
Caspase-3 = target: T2, Caspase-3 (Homo sapiens, UniProt P42574); format: functional;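 also: Dose-response selectivity test against caspase-3 for candidate inhibitors of sentrin-specific proteases (SENPs)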
T2 sequence (P42574 whole entry): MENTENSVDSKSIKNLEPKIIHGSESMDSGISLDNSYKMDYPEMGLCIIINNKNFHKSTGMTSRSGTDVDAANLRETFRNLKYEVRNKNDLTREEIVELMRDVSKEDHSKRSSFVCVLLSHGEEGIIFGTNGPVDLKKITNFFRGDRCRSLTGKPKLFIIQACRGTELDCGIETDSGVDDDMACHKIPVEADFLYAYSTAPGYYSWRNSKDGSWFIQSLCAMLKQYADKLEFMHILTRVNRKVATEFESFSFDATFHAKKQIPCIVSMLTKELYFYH

[7] = target: T3, Sentrin-specific protease 7 (Homo sapiens, UniProt Q9BQF6); format: functional;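 also: Luminescence-based dose-response confirmation of ultra-high-throughput screening hits, measuring inhibition of SENP7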
T3 sequence (Q9BQF6 whole entry): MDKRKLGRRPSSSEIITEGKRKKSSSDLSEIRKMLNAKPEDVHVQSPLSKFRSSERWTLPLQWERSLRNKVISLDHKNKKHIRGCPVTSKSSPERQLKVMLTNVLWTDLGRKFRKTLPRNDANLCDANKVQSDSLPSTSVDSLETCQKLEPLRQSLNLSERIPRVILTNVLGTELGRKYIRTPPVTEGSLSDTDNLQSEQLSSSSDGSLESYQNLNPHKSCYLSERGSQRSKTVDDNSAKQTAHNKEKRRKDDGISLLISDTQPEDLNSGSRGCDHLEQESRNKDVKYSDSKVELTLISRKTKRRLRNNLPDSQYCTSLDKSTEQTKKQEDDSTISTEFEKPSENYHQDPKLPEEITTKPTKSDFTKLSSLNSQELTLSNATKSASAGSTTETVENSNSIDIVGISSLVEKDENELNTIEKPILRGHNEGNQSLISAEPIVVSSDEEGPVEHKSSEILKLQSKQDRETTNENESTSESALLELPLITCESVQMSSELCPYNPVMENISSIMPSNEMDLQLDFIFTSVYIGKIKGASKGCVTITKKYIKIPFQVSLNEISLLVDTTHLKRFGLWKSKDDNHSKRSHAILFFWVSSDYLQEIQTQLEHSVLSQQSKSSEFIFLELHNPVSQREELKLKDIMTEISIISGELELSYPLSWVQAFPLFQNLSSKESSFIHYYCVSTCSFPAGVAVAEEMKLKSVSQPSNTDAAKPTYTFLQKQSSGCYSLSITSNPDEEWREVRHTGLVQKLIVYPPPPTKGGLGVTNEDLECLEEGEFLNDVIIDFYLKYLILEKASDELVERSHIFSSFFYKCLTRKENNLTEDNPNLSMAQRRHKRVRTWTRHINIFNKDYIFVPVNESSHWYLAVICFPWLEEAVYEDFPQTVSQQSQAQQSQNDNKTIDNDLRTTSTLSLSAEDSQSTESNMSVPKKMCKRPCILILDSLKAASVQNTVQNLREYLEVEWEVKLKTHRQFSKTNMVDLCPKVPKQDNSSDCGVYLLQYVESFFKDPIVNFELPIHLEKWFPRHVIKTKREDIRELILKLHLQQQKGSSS

[8] = target: T4, Sentrin-specific protease 6 (Homo sapiens, UniProt Q9GZR1); format: functional;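 also: Luminescence-based dose-response confirmatory assay of SENP6 inhibition, following up an ultra-high-throughput screen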
T4 sequence (Q9GZR1 whole entry): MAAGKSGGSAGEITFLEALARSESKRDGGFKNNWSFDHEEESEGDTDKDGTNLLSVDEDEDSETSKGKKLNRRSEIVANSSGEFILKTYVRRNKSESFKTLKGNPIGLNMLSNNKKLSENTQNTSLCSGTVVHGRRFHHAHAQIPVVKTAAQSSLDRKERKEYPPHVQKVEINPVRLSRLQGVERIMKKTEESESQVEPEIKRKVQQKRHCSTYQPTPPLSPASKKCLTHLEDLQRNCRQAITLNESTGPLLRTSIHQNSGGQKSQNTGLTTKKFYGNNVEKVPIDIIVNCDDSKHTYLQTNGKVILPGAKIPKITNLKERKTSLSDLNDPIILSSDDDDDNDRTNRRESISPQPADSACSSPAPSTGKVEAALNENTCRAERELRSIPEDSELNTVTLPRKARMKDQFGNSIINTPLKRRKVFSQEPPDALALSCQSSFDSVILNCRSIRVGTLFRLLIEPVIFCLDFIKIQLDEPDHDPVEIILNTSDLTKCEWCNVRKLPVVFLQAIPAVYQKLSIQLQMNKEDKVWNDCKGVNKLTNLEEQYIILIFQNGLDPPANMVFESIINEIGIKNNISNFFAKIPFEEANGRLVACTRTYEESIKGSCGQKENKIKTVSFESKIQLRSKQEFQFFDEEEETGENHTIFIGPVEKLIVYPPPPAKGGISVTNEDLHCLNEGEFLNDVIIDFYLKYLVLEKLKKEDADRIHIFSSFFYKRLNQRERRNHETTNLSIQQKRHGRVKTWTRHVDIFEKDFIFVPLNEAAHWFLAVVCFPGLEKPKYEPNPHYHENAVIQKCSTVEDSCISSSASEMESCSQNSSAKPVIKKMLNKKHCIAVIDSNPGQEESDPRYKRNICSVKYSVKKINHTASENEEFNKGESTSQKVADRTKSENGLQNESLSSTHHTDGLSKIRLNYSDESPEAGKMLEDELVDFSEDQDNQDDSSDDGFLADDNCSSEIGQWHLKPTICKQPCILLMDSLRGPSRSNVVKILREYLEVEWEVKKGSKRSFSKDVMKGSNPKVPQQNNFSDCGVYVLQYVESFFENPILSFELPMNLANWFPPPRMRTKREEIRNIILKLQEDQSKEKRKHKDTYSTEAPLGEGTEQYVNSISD

[9] = target: T5, Sentrin-specific protease 8 (Homo sapiens, UniProt Q96LD8); format: functional;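 also: luminescence read-out of SENP8 inhibition, dose-response confirmation following an ultra-high-throughput screen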
T5 sequence (Q96LD8 whole entry): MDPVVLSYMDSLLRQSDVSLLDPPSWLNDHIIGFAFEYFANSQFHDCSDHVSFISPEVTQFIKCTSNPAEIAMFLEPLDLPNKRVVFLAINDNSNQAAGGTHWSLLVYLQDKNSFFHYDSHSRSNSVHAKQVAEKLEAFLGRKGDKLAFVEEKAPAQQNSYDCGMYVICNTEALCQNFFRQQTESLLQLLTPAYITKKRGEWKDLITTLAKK

[10] = microbe, parasite or virus in culture; format: functional; settings: Mycobacterium tuberculosis
Beta-galactosidase = Beta-galactosidase (Escherichia coli, UniProt Q8VNN2); assay: PubChem AID 485352; format: functional
Beta-galactosidase, sequence (Q8VNN2 whole entry): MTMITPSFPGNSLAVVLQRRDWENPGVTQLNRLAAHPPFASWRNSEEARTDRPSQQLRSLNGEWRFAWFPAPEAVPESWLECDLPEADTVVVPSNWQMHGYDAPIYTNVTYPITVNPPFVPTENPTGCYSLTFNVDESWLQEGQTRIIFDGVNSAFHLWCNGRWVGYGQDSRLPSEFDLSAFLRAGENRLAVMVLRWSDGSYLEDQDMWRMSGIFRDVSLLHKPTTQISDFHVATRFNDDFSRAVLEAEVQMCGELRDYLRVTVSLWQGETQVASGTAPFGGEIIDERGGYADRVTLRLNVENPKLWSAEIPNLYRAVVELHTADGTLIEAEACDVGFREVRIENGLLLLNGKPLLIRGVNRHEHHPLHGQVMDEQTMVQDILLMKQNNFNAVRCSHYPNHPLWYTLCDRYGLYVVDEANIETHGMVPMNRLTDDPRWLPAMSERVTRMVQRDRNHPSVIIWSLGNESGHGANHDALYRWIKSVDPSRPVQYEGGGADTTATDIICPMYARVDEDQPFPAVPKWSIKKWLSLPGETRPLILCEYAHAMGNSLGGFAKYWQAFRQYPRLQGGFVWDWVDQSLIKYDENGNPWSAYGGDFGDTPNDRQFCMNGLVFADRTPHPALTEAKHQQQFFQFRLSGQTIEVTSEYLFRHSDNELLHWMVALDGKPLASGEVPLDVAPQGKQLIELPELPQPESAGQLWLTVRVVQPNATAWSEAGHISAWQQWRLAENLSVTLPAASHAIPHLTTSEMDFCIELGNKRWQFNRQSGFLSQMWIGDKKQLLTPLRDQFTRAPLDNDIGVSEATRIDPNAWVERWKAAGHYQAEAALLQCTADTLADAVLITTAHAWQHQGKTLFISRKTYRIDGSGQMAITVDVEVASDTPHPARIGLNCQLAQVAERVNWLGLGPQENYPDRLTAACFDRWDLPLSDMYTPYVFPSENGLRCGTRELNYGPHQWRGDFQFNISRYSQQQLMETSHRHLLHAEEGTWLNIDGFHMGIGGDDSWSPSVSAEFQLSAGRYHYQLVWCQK

[11] = target: Type-1 angiotensin II receptor (Homo sapiens, UniProt P30556); assay: AT1 receptor antagonists, dose response, selectivity assay for APJ receptor antagonist project, cell-based, uHTS hits (AID 463214); format: functional;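 also: antagonist potency against angiotensin II stimulated AT1 response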
Type-1 angiotensin II receptor, sequence (P30556 whole entry): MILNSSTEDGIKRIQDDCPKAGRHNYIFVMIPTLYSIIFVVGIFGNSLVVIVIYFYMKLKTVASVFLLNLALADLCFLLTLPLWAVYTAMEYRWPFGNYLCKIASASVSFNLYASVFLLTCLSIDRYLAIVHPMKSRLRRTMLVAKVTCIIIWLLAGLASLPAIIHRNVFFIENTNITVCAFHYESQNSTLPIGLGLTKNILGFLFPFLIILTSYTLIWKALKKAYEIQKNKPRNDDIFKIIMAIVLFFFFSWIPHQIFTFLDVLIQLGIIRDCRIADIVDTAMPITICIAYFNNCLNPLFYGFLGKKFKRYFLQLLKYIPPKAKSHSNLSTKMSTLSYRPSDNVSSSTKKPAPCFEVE

Genome polyprotein = Genome polyprotein (dengue virus type 2, UniProt P29990); assay: Dengue-2 NS5 methyltransferase inhibitors, primary screen, biochemical, confirmation dose response (AID 588689); format: functional
Genome polyprotein, sequence (P29990 2492-3391 limits assumed): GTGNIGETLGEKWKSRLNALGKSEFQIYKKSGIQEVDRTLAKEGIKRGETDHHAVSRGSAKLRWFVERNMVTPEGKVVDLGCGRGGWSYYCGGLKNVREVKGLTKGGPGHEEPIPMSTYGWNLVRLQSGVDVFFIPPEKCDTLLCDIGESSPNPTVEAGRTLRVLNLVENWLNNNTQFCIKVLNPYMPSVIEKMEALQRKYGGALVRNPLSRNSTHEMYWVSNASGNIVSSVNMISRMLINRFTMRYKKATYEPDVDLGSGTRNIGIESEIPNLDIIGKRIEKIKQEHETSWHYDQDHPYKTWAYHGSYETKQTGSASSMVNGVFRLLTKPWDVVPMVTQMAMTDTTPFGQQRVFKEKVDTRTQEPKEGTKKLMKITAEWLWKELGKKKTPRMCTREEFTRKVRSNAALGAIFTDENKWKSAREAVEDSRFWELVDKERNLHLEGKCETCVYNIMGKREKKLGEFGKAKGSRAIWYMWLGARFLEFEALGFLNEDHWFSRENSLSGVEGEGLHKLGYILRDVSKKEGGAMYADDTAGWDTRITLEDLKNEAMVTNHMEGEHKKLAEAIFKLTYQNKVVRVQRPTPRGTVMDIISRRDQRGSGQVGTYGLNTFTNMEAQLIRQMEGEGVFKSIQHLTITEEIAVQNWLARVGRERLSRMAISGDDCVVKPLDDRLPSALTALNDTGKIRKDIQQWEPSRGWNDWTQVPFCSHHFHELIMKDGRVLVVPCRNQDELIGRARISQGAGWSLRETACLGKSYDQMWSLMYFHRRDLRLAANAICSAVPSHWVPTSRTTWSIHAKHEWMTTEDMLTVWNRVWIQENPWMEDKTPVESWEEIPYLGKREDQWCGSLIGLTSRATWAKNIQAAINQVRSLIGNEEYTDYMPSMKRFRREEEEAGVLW

[12] = target: T6, Heat shock factor protein 1 (Mus musculus, UniProt P38532); assay: inhibition of MG132-induced HSE-luciferase signal, confirmation, cell-based, NIH3T3, luminescence, dose retest (AID 2382); format: functional;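 also: NIH3T3 fibroblasts with HSF1-driven luciferase reporter stressed by proteasome inhibitor MG132; luminescence from HSF1-driven luciferase expression after 8 hours of MG132 stress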
T6 sequence (P38532 whole entry): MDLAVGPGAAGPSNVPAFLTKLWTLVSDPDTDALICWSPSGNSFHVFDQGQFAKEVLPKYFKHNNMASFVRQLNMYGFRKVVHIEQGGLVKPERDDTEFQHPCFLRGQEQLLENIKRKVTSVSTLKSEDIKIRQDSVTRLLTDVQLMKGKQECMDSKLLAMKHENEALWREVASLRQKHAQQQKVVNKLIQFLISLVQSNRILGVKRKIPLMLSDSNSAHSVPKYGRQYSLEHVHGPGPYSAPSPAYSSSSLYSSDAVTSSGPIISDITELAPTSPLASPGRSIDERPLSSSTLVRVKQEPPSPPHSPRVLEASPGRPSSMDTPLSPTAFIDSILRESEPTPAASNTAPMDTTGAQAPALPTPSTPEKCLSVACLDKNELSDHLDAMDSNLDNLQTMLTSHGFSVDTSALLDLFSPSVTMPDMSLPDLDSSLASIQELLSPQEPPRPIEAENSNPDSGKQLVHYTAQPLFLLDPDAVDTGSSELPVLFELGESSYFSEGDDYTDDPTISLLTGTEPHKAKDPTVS

[13] = Luminescence Cell-Based Dose Confirmation HTS to Identify Activators of 5'UTR Stem-Loop Driven Alpha-Synuclein mRNA Translation in H4 Neuroglioblastoma Cells. [Related pubchem assays: 1829 (Project Summary), 1814 (Primary HTS)]; format: functional
cells [14] = format: functional, cell-based
H4 = assay: Luminescence Cell-Based Dose Response HTS to Identify Activators of 5'UTR Stem-Loop Driven Prion Protein mRNA Translation in H4 Neuroglioblastoma Cells. [Related pubchem assays: 1829 (Project Summary), 1814 (Primary HTS)]; format: functional; settings: Homo sapiens
cells [15] = format: functional, cell-based; remark: listed apart in the source
HEK293 = assay: cells; format: functional, cell-based; settings: Homo sapiens
[16] = target: T7, Nuclear receptor subfamily 0 group B member 1 (Homo sapiens, UniProt P51843); assay: Luminescence-based cell-based high throughput dose response assay for inhibitors of the orphan nuclear receptor subfamily 0, group B, member 1 (DAX1; NR0B1). [Related pubchem assays (depositor defined):AID504766, AID504790]; format: functional
T7 sequence (P51843 whole entry): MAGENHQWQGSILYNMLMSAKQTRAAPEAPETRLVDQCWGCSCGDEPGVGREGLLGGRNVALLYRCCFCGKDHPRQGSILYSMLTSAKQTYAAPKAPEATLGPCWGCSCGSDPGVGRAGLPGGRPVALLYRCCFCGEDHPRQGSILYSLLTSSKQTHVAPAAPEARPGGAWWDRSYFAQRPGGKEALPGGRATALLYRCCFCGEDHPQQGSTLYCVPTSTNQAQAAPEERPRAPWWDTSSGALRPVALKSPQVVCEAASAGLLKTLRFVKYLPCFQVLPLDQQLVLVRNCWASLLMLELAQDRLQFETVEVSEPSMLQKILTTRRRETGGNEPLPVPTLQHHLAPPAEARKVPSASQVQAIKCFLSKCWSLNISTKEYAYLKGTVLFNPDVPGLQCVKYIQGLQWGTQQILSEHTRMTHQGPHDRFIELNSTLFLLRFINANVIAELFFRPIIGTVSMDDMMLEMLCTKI

SMILES: c1ccc2nc(-c3nccs3)ccc2c1
- AC50 (HeLa): 57.5 µM (active)

SMILES: COc1ccc(/C=C2\SC(=O)N(CCNC(=O)C3CC4C=CC3C4)C2=O)cc1 (configuration not stated)
- EC50 [1]: 0.164 µM (active)
- EC50 [2]: > 67.5 µM (inactive)
- AC50 (Escherichia coli [3]): 23.7 µM (active)
- AC50 (Escherichia coli [4]): > 380 µM (inactive)

SMILES: CN(CC(=O)N1CCN(c2ncccn2)CC1)S(=O)(=O)c1ccc(Cl)cc1
- EC50 [5]: 0.117 µM (active)

SMILES: COc1cccc(NC(=O)c2csc3c2CCCC3)c1
- CC50 [6]: 32.5 µM (active)
- IC50 (Caspase-3): 19.2 µM (active)
- IC50 [7]: 5.17 µM (active)
- IC50 [8]: 15.5 µM (active)
- IC50 [9]: 18.9 µM (active)
- AC50 (HeLa): 49.7 µM (active)

SMILES: CCCc1ccc2oc(C(=O)N(C)Cc3nccs3)c(C)c2c1
- CC50 [10]: 21.8 µM (active)
- AC50 (Escherichia coli [3]): 31.7 µM (active)
- AC50 (Escherichia coli [4]): > 380 µM (inactive)

SMILES: Cc1cc(C(=O)OCC(=O)c2cccc([N+](=O)[O-])c2)c2ccccc2n1
- EC50 (Beta-galactosidase): > 40 µM (inactive)
- IC50 [11]: 17.4 µM (active)

SMILES: O=C1Nc2ccc(F)cc2C12Nc1ccccc1-c1nnc(SCc3ccccc3Cl)nc1O2 (configuration not stated)
- EC50 (Beta-galactosidase): > 40 µM (inactive)
- IC50 [11]: 25.5 µM (not active)
- IC50 (Genome polyprotein): > 100 µM (active)

SMILES: CC(=O)Nc1ccc(-c2cn3c(n2)SCC3)cc1
- EC50 [12]: > 195 µM (not active)
- EC50 [5]: 10.9 µM (inactive)

SMILES: O=C(Nc1ncccc1O)c1ccc(C(=O)c2ccccc2)cc1
- EC50 [13]: 11.4 µM (active)
- EC50 [1]: 16.4 µM (active)
- EC50 (cells [14]): 72.7 µM (active)
- EC50 (H4): 23 µM (active)
- EC50 (cells [15]): 48.2 µM (active)
- IC50 (HEK293): 1.04 µM (active)
- IC50 [16]: > 67.6 µM (inactive)
- EC50 [2]: > 67.5 µM (inactive)

SMILES: Cc1ccc2[nH]c(/C(C#N)=C/c3ccccc3C(=O)O)nc2c1
- IC50 (HEK293): > 67.5 µM (inactive)
- IC50 [16]: > 67.5 µM (inactive)

From ChEMBL document CHEMBL1201862, “PubChem BioAssay data set” (2004)
